System: skin of test persons
Test: Cooling effect on the skin as perceived by test persons (panel test)
Type: in vivo
Settings: in each formulation the proportion of 1,2-pentanediol replaced with 1,2-hexanediol at a ratio of 5:3
Text: In case of doubt, the perceptibility of the cooling effect is to be determined by means of a panel test wherein the corresponding mixture is applied onto the skin of at least 10 test persons. If in the course of this, preferably in combination with a blind test, 90% of the test persons confirm a cooling effect, then this will preferably correspond to the criteria for the presence of a corresponding effect. Topical applications in terms of the present text are applications where the corresponding active substance or the combination of active substances is brought into contact with the skin or with a mucous membrane. It is especially preferred that the evaluation of a cooling effect and its enhancement is made analog to the application example presented below. […] Provided the corresponding formulations also contained trans-4-tert. butylcyclohexanol, the cooling effect was even further enhanced compared to formulations without this compound.

CCCCC(O)CO (stereo not shown) [1,2-hexanediol]
cooling effect enhancement after replacement of 1,2-pentanediol: comparable effects are achieved

— US11491091B2, “Cooling product” (SYMRISE AG, priority 2010, dated 2022)
